Measured values published in patent US20180318279A1 (priority 2015, published 2018).

Key:
[1] = in vivo; cited from earlier work
injured hind paw = conditions: rat, in vivo; cited from earlier work
[2] = Skin permeation with human abdominal cadaver skin and absorption estimates drawn from it; conditions: assuming 3.8 fold increase in drug delivery

CN(C)C(=O)C(CCN1CCC(O)(c2ccc(Cl)cc2)CC1)(c1ccccc1)c1ccccc1 [loperamide, 4-[4-(4-Chlorophenyl)-4-hydroxypiperidin-1-yl]-N,N-dimethyl-2,2-diphenylbutanamide]
half-life, rapid phase one [1]: 2.3 h | half-life, slow phase two [1]: 23 h | antinociception (injured hind paw): rapid dose-dependent antinociception | estimated increased penetration with damaged stratum corneum [2]: 0.057 mg

CN1CC[C@]23c4c5ccc(O)c4O[C@H]2[C@@H](O)C=C[C@H]3[C@H]1C5 [morphine]
systemic effects following topical application (injured hind paw): revealed systemic effects
